Source: patent publication US7608601B2, “4′-Substituted nucleoside derivatives as inhibitors of HCV RNA replication” (Roche Palo Alto LLC, priority 2001, dated 2009)

Assays:
[1] = system: Renilla Luciferase HCV replicon cells (2209-23); test: WST-1 cytotoxicity assay; type: cell-based, human; conditions: 2209-23 cells, three days
Experimental: For the assay procedure, Renilla Luciferase HCV replicon cells (2209-23) that cultured in Dulbecco's MEM (GibcoBRL cat no. 31966-021) with 5% fetal calf serum (FCS, GibcoBRL cat. no. 10106-169) were plated onto a 96-well plate at 5000 cells per well, and incubated overnight. Twenty-four hours later, different dilutions of chemical compounds in the growth medium were added to the cells, which were then further incubated at 37° C. for three days. The assay was carried out in duplicate plates, one in opaque white and one in transparent, in order to measure the activity and cytotoxicity of a chemical compound in parallel ensuring the activity seen is not due to reduction on cell proliferation.
For the cytotoxicity assay, WST-1 reagent from Roche Diagnostic (cat no. 1644807) was used. Ten microlitre of WST-1 reagent was added to each well including wells that contain media alone as blanks. Cells were then incubated for 1 to 1.5 hours at 37° C., and the OD value was measured by a 96-well plate reader at 450 nm (reference filter at 650 nm). Again CC50, the concentration of the drug required for reducing cell proliferation by 50% in relation to the untreated cell control value, can be calculated from the plot of percentage reduction of the WST-1 value vs. drug concentration.

[2] = system: HCV replicon RNA; test: Renilla luciferase HCV replicon assay; type: cell-based, Hepatitis C Virus; conditions: Huh7 2209-23 cells, three days

SMILES: [N-]=[N+]=N[C@]1(CO)O[C@@H](n2ccc(N)nc2=O)[C@H](O)[C@@H]1O [compound 1, 4′-C-Azidocytidine]
- CC50(μM) WST-1, given as % at a concentration ([1]; at 100 μM): 0% (100 μM)
- IC50 ([2]; Hepatitis C virus, Huh-7, 72 h, concentration reducing replicon level by 50% vs untreated control): 1200 nM

SMILES: C#C[C@]1(CO)O[C@@H](n2ccc(N)nc2=O)[C@H](O)[C@@H]1O.Cl [compound 3, 4′-C-Ethynylcytidine hydrochloride (1:1)]
- CC50(μM) WST-1, given as % at a concentration ([1]; at 20 μM): 0% (20 μM)
- IC50 (μM), given as % at a concentration ([2]; at 20 μM): 3% (20 μM)
